Here are results for four substances from US20090042809A1, “Blood Pressure Lowering Protein Hydrolysates” (priority 2005, published 2009).

Data set [1] concerns ACE. In words: at-line ACE inhibition assay (HHL substrate, HPLC read-out). The data set is classed as biochemical. Conditions: at-line measurements used in the screening phase. The text has this:
The presence of novel ACE inhibiting peptides in CDBAP was investigated by using 2-dimensional-chromatographic-separation combined with an at-line ACE inhibition assay and mass spectrometry for identification. In the first analysis the peptide mixture was separated on an ODS3 liquid chromatography (LC) column and ACE inhibition profiles were generated from the various fractions obtained. In a second analysis the fractions from the first column showing a high ACE inhibition were further separated on a Biosuite LC column using a different gradient profile. The fractions collected from this second column were split into two parts: one part was used for the at-line ACE inhibition measurement while the other part was subjected to MS and MS-MS analysis to identify the peptides present. […]
The 96 well plate was then analysed on a flash-HPLC-column. […] Hippuric acid (H) and HHL were monitored at 280 nm. The peak heights of H and HHL were measured and the ACE inhibition (ACEI) of each fraction was calculated according to the equation:
[formula] • ACEIα Percentage inhibition of the analyte • Dcw Degree of Cleavage by ACE of HHL to H and HL in water • Dca Degree of Cleavage of HHL to H and HL for the analyte The Degree of Cleavage was calculated by expressing the peak height of H as a fraction of the sum of the peak heights of H and HHL.

The subject of data set [2] is ACE. In words: modified Matsui ACE inhibition assay (Hip-His-Leu, TNBS). The data set is classed as biochemical. The protocol: To determine the ACE inhibition activity of MAP and ITP, the chemically synthesised tripeptides were assayed according to the method of Matsui et al. (Matsui, T. et al. (1992) Biosci. Biotech. Biochem. 56: 517-518) with some minor modifications.
Each one of the four samples contained 75 μl 3 mM hippuryl histidine leucine (Hip-His-Leu, Sigma Chemicals) dissolved in a 250 mM borate solution containing 200 mM NaCl, pH 8.3. ACE was obtained from Sigma Chemicals. The mixtures were incubated at 37° C. and stopped after 30 min by adding 125 μl 0.5 M HCl. Subsequently, 225 μl bicine/NaOH solution (1 M NaOH: 0.25 M bicine (4:6)) was added, followed by 25 μl 0.1 M TNBS (2,4,6-Trinitrobenzenesulfonic acid, Fluka, Switzerland; in 0.1 M Na2HPO4). After incubation for 20 min. at 37° C., 4 ml 4 mM Na2SO3 in 0.2 M NaH2PO4 was added and the light absorbance at 416 nm was measured with UV/Vis spectrophotometer (Shimadzu UV-1601 with a CPS controller, Netherlands).
The amount of ACE inhibition (ACEI) activity was calculated as a percentage of inhibition compared with the conversion rate of ACE in the absence of an inhibitor according to the following formula:
ACEI (%)=((Control 1−Control 2)−(Sample 1−Sample 2))/(Control 1−Control 2))*100
wherein • Control 1=Absorbance without ACE inhibitory component (=max. ACE activity) [AU]. • Control 2=Absorbance without ACE inhibitory component and without ACE (background) [AU]. • Sample 1=Absorbance in the presence of ACE and the ACE inhibitory component [AU]. • Sample 2=Absorbance in the presence of the ACE inhibitory component, but without ACE [AU].

Data set [3] has as its target ACE (Homo sapiens, UniProt P12821). Conditions: cited from earlier work; for IC50: Nakamura et al. 1995, Aryoshi 1993, read-out: IC50 values reported earlier for ACE inhibiting peptides; for ACE inhibiting activities reported: in vitro, prior art.
In data set [4] the test system is spontaneously hypertensive rats. Conditions: tripeptides from fermented milk (Nakamura et al. 1995); cited from earlier work.
The nature of data set [5]: gastrointestinal treatment (GIT) simulating digestion with pepsin and pancreatin. It counts as in vitro ADME, human. On the procedure: After consumption, dietary proteins and peptides are exposed to various digestive enzymatic processes in the gastrointestinal tract. In order to assess the stability of the newly identified bioactive peptides in the human gastrointestinal tract, the CDBAP preparation (prepared as described in Example 7) was subjected to a gastrointestinal treatment (GIT) simulating the digestive conditions typically found in the human body. Samples obtained after various incubation times in the GIT model system were analysed using the on-line HPLC-Bioassay-MS or HRS-MS system to quantify any residual MAP and ITP peptides. The GIT procedure was performed in a standardized mixing device incorporating a 100 ml flask (as supplied by Vankel, US). The temperature of the water bath was set to 37.5° C. and the paddle speed was chosen such that the sample was kept in suspension (100 rpm).
About 3.4 grams of CDBAP (protein level of approx 60%) was dissolved/suspended in 100 ml Milli-Q water. During gastric simulation 5 M HCl was used to decrease the pH. At the end of gastric simulation and during the duodenal phase 5 M NaOH was used to raise the pH.
The CDBAP suspension was preheated to 37.5° C. and 5 ml of the suspension was removed to dissolve 0.31 g of pepsin (Fluka order no. 77161). At t=0 min the 5 ml with the now dissolved pepsin was added back to the suspension. Then the pH of the CDBAP suspension was adjusted slowly by hand using a separate pH meter according to the following scheme:
t=20 min pH decreased to 3.5 t=40 min pH to 3.0 t=50 min pH to 2.3 t=60 min pH to 1.8 t=65 min pH raised to 2.7 t=75 min pH to 3.7 t=80 min pH to 5.3 […]
Then the samples were transferred into a beaker and were placed in a microwave till boiling. […] The total N concentration of the powder as obtained was determined and converted to protein level using the Kjeldahl factor of casein (6.38). […] The levels of MAP and ITP surviving the proteolytic treatment according to the GIT procedure were determined as described in Example 7 and the data obtained are shown in Table 10.

Where [6] appears, read: as restated in the description, read-out: IC50 value in the Modified Matsui test.

Entries after “also recorded” stand apart in the source; their conditions may differ.

Chain of ACE (Homo sapiens, UniProt P12821) (P12821 30-1306, species assumed): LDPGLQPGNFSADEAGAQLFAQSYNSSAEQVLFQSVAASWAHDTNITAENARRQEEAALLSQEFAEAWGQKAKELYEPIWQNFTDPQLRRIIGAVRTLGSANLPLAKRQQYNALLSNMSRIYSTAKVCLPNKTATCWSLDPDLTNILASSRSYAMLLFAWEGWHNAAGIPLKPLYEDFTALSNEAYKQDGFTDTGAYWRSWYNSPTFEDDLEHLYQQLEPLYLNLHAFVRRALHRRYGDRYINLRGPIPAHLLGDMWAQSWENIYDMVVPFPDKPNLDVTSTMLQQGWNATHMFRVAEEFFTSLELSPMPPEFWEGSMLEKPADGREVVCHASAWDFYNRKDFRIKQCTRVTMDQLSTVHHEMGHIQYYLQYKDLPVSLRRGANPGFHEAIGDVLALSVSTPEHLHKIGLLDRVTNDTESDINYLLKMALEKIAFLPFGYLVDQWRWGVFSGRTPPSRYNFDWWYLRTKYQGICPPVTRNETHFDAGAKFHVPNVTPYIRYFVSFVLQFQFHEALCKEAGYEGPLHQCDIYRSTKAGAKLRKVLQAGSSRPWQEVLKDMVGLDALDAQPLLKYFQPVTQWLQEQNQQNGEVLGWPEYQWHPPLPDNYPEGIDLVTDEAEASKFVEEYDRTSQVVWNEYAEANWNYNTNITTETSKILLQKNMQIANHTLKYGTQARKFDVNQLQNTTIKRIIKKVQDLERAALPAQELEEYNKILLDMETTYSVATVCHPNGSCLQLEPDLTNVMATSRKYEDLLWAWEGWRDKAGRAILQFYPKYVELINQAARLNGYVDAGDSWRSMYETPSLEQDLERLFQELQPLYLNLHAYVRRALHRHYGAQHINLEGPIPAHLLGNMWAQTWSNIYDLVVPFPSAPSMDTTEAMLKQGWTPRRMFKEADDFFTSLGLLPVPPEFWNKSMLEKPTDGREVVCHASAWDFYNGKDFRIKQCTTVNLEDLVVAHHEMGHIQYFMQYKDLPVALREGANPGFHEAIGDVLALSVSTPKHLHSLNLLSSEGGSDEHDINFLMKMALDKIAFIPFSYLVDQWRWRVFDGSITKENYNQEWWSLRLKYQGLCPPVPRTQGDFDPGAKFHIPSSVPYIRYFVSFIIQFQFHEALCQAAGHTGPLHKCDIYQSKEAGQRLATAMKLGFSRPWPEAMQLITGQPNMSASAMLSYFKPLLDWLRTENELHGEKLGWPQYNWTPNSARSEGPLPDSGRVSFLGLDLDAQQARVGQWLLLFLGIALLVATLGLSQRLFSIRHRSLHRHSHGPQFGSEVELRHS

Take Ile-Pro-Pro (IPP): the IC50 is 7.1 µM in data set [1], 2 µM in data set [2] (setting [6]) and 5 µM in data set [3]. For the same substance, the “ACE inhibiting activities reported” value in data set [3] is on record as “Strong ACE inhibiting activities”. Also, the antihypertensive effects result in data set [4] is recorded as “confirmed”.
Take Ile-Thr-Pro (ITP): the IC50 came to 50 µM in data set [1]; 10 µM in data set [2] (setting [6]); 10 µM in data set [2] (chemically synthesized tripeptides, read-out: IC50 value, Modified Matsui assay). Also, the “Concentration of tripeptide in CDBAP before GIT procedure” value in data set [5] (CDBAP (Example 7), before passage) is on record as 903.7 μg g^−1 powder. In addition, the “Concentration of tripeptide in CDBAP after GIT procedure” value in data set [5] (CDBAP after GIT, pepsin then pancreatin, 125 min, 37.5° C.) is 889.1 μg g^−1 powder. In data set [5] (simulated gastro-intestinal digestion), the “resistance against GIT digestion” value was “high resistance; also recorded: resist gastrointestinal proteolytic degradation; also recorded: survive”.
For Leu-Pro-Pro [LPP], in data set [3], the concentration for half-maximal inhibition (IC50) was 9.6 µM and the “ACE inhibiting activities reported” value is recorded as “Strong ACE inhibiting activities”.
Consider Val-Pro-Pro [VPP], for which the “ACE inhibiting activities reported” value in data set [3] was “Strong ACE inhibiting activities”. The antihypertensive effects entry in data set [4] was “confirmed”.
